Patent publication US20070232567A1, “Formulations Of Low Dose Non-Steroidal Anti-Inflammatory Drugs And Beta-Cyclodextrin” (priority 2006, published 2007)

Tested on: patients with moderate-to-severe post-surgical (dental) pain
Assay: Randomized, double-blind, single-dose, placebo- and comparator-controlled study of pain relief by administered dose
Assay type: in vivo, human
Procedure: A 336-patient, seven treatment arm, randomized, double-blind, single-dose, and placebo- and comparator-controlled, parallel-group study was conducted. Patients were randomly assigned to receive a single dose of either diclofenac sodium solubilized with hydroxypropyl-beta-cyclodextrin (hereinafter “DIC”), ketorolac tromethamine, or placebo.
Bolus IV injectable 2 ml solutions were prepared by solubilizing diclofenac sodium with hydroxypropyl-beta-cyclodextrin. The formulation strengths were as follows: • Formulation: Diclofenac sodium solubilized with hydroxypropyl-β-cyclodextrin • Strengths: 75 mg, 37.5 mg, 18.75 mg, 9.4 mg and 3.75 mg • Dosage: Bolus IV injection (no less than 15 sec) • Batch Number: 063004 (PPS4010) • Manufacturer: Manufactured for Javelin by Precision Pharma • Storage Conditions: Room temperature
Active Control/Comparator: • Formulation: Ketorolac Tromethamine • Strength: 30 mg • Dosage: Bolus IV injection (no less than 15 sec) • Batch Number: 21-430-DK • Manufacturer: Abbott Labs • Storage Conditions: Room temperature
Pain was assessed by each patient at Baseline (0 hour: Visual Analog Scale (VAS) and categorical pain intensity only), at 5, 15, 30 and 45 minutes, and at 1, 1.5, 2, 3, 4, 5, 6, 7, 8, 10, 12 and 24 hours after administration of study medication and immediately prior to the first dose of rescue medication. At each post-dose time period, levels of pain intensity (categorical and VAS) and pain relief (categorical and VAS) was assessed by each patient. […]
The presence of a dose-response was tested with a step-down testing procedure. Total pain relief (TOTPAR), peak pain relief, pain intensity difference (SPID), summed peak reduction in pain intensity difference (SPRID), and patient global evaluation was analyzed with analysis of variance (ANOVA) with treatment, center, and baseline categorical pain intensity as factors. […] Time to onset of perceptible relief and time to onset of meaningful relief was analyzed with survival analysis techniques. […] A 95% confidence interval for each estimated median time to event was calculated. […]

O=C(c1ccccc1)c1ccc2n1CCC2C(=O)O (stereo not drawn) [ketorolac, ketorolac tromethamine]
% Maximum Effect (TOTPAR) (30 mg single bolus IV injection (active comparator)): 100%
TOTPAR (Sum of Pain Relief VAS 0–100 mm ratings 0–6 hours) (30 mg single bolus IV injection (active comparator), value (SEM)): 400.3 (SEM 36)
peak analgesic response compared with that of diclofenac (about 80% pain relief) (30 milligrams): Similar
